Laboratory results from patent publication US20170184604A1, “DD1ALPHA RECEPTOR AND USES THEREOF IN IMMUNE DISORDERS” (THE GENERAL HOSPITAL CORPORATION, priority 2014, published 2017).

What was measured:
human CD4+ T cells = test: Human T cell activation assay (CFSE proliferation, cytokine ELISA); format: cell-based
Description: Enriched human CD4+ T cells and CD8+ T cells were stained with CFSE (1 μM) and stimulated with plate-bound anti-CD3 antibody (3 μg/ml) together with 2, 5, or 10 μg/ml of DD1α-Ig proteins or control Ig proteins. The proliferations of CD4+ T or CD8+ T cells were determined by the percentages of CFSE-labeled CD4+ T or CD8+ T cells at the 72-hour culture. The levels of cytokines IFN-γ and TNF-α in culture supernatant were analyzed by ELISA at the 48-hour culture. […] The proliferation and cytokine production of CD4+ T cells were determined as FIG. 5A. […] The proliferations of CD4+ T cells were determined by percentage of CFSE-diluted CD4+ cells on day 3. The levels of cytokines IFN-γ and IL-2 in culture supernatant were analyzed by ELISA on day 2. […] Data are shown as mean±SD and representative of three experiments.
The proliferations of CD4^+ T cells were determined by percentage of CFSE-diluted CD4^+ cells on day 3.
The cytokine production of CD4^+ T cells were then determined IFN-γ and TNF-alpha levels in culture supernatants on day 2 were analyzed by ELISA.
The amount of Ig protein was kept constant at 10 μg/ml by the addition of control Ig protein. Human CD4+ or CD8+ T cells were purified from freshly isolated PBMCs using CD4+ T Cell Isolation Kit II, human or CD8+ T Cell Isolation Kit, human (Miltenyi Biotec). Mouse CD4+ and CD8+ T cells were purified from splenocytes freshly isolated from mice using CD4+ T Cell Isolation Kit II, mouse or CD8a+ T Cell Isolation Kit II, mouse (Miltenyi Biotec). […] The T cells were labeled with 1 μM CFSE, quenched by cold FBS and incubated in the anti-CD3 & Ig proteins-coated plates. On day 2 after stimulation, supernatant was collected and cytokines were assayed by ELISA. On day 3, cells were stained with anti-CD4-APC (OKT4, eBioscience for human CD4+ T cells; RM4-5, eBioscience for mouse CD4+ T cells) or anti-CD8-APC (SK1, eBioscience for human CD8+ T cells; 53-6.7, eBioscience for mouse CD8+ T cells) and then analyzed for CFSE dilution by flow cytometry.

[1] = test system: CD4+ or CD8+ T cells from wt- or DD1α−/− mice; test: Mouse T cell activation assay (CFSE proliferation); format: cell-based
Description: Enriched CD4+ and CD8+ T cells from Wt and DD1α−/− mice were stimulated, with 2.5 μg/ml anti-CD3 alone or together with DD1α-Ig or control Ig. The proliferations of CD4+ T cells (top graphs) or CD8+ T cells (bottom graphs) were determined by the percentage of CFSE-diluted CD8+ cells on day 3. The levels of cytokines (IFN-γ and TNF-α) in culture supernatant on day 2 were analyzed by ELISA. The results represent mean±SD from three experiments.
The inventors have discovered that DD1αregulates T cell activation through DD1α on T cells. […] The proliferations of CD4+ T cells were determined by percentage of CFSE-diluted CD4+ cells on day 3 and IFN-γ and levels in culture supernatants on day 2 were analyzed by ELISA. […] The proliferations of CD8+ T cells were determined by percentage of CD8+ T cells containing diluted CFSE signal on day 3. The cytokine levels in culture supernatant were analyzed by ELISA on day 2.
The amount of Ig protein was kept constant at 10 μg/ml by the addition of control Ig protein. Human CD4+ or CD8+ T cells were purified from freshly isolated PBMCs using CD4+ T Cell Isolation Kit II, human or CD8+ T Cell Isolation Kit, human (Miltenyi Biotec). Mouse CD4+ and CD8+ T cells were purified from splenocytes freshly isolated from mice using CD4+ T Cell Isolation Kit II, mouse or CD8a+ T Cell Isolation Kit II, mouse (Miltenyi Biotec). Purity was confirmed to be over 90% by flow cytometry. The T cells were labeled with 1 μM CFSE, quenched by cold FBS and incubated in the anti-CD3 & Ig proteins-coated plates. On day 2 after stimulation, supernatant was collected and cytokines were assayed by ELISA. On day 3, cells were stained with anti-CD4-APC (OKT4, eBioscience for human CD4+ T cells; RM4-5, eBioscience for mouse CD4+ T cells) or anti-CD8-APC (SK1, eBioscience for human CD8+ T cells; 53-6.7, eBioscience for mouse CD8+ T cells) and then analyzed for CFSE dilution by flow cytometry.

DD1α = test: Ig fusion protein staining of 293T transfectants (flow cytometry); format: binding, human; conditions: cell surface staining
Description: (§1) The bound Ig fusion proteins were detected with anti-Ig-APC. Empty vector (pcDNA3.1)-transfected cells stained with Ig proteins are shown as a negative control (gray filled) and other staining is shown as black open. […] Purified CD4+ T cells from Wt and DD1α−/− mice were assayed for binding to Ig fused DD1α or PD1 proteins. […] The bound Ig fusion proteins were detected by anti-Ig-APC. Binding amounts were determined by percentage of APC positive cells compared to control Ig protein-bound cells. […] The bead bound proteins were eluted and determined by western blot analysis using anti-HA antibody (asterisks). […] The bead bound proteins were eluted and detected by western blot analysis with anti-DD1α or anti-PD1 antibody (asterisk). […] MCF7 cells were treated by Nutlin-3 (10 μM) for 1 to 3 days. MCF7 cells were transfected with control siRNA or p53 siRNA for 24 hours and treated with CPT (500 nM) or DMSO (control) for 1 and 2 days. The levels of indicated proteins were analyzed by western blot analysis. Total RNAs from control siRNA or p53 siRNA transfected MCF7 cells were assessed for mRNA levels of PD1 or PD-L1 by real-time quantitative PCR.

PD-1 = biological target: T1, PD-1 (Homo sapiens, UniProt Q15116); test: as above; format: binding; conditions: cell surface staining
T1 construct: full length human PD-1 and Tim3 cDNA (Sino biological) were cloned into pcDNA3.1(−) tagged with HA at C-terminus; host or cells: HEK293T
Description: as §1

TIM-3 = biological target: T2, TIM-3 (Homo sapiens, UniProt Q8TDQ0); test: as above; format: binding; conditions: cell surface staining
T2 construct: full length human PD-1 and Tim3 cDNA (Sino biological) were cloned into pcDNA3.1(−) tagged with HA at C-terminus; host or cells: HEK293T
Description: as §1

T1 sequence (Q15116 25-288): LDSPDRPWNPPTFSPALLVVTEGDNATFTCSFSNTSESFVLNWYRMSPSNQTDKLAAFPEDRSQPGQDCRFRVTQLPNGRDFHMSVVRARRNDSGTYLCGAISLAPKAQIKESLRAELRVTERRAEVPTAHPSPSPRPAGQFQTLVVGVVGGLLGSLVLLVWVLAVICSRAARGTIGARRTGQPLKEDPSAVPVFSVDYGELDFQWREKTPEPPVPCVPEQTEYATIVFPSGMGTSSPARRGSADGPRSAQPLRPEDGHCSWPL
Chain of DD1α (Q9H7M9 33-311): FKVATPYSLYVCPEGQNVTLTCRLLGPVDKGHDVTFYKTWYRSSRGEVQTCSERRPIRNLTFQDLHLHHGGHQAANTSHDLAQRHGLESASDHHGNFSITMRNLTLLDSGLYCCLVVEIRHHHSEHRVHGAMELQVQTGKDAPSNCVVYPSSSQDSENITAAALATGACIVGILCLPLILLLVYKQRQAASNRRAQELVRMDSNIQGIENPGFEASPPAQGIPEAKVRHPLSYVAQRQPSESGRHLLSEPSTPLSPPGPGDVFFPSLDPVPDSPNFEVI

## DD1α-Ig: the extracellular region of DD1α fused with the immunoglobulin G Fc segment
Human CD4+ T cells; human CD4+ and CD8+ T cells, ELISA of culture supernatant
  T cell activation-induced production of IFN-γ and TNF-α: clearly blocked
Human CD4+ T cells; plate-bound anti-CD3 3 μg/ml, CFSE, Ig control 92.2%
  proliferation of human CD4+ T cells: 47.1%
Human CD4+ T cells; plate-bound anti-CD3 3 μg/ml, CFSE, relative to Ig control (92.2% proliferation)
  inhibition of anti-CD3-stimulated human CD4+ T cell proliferation: ~45%
Human CD4+ T cells; various concentrations with 3 μg/ml anti-CD3
  CD4+ T cell proliferation stimulated by anti-CD3: strongly inhibited
[1]; DD1α−/− CD4+ or CD8+ T cells
  inhibition of anti-CD3-induced CD4+ or CD8+ T cell proliferation: ~30%
[1]; T cells from wt mice
  inhibition of anti-CD3-induced CD4+ or CD8+ T cell proliferation: ~50%
[1]; dose-dependent
  mouse CD4+ and CD8+ T cell activation: inhibitory effect
DD1α
  binding to DD1α-transfected 293T cells: specifically bound
PD-1
  binding to PD-1-transfected 293T cells: specifically bound
TIM-3
  binding to TIM-3 transfectants: not to PD-L1 or TIM-3 transfectants
